Values of other authors, collected in patent publication US20070105927A1, “Amorphous rizatriptan benzoate” (Glenmark Pharmaceuticals Limited, priority 2005, published 2007).

Tests used:
[1] = biological target: human cloned 5-HT1B receptors (Homo sapiens, UniProt P28222); details: human cloned receptor
[2] = biological target: human cloned 5-HT1D receptors (Homo sapiens, UniProt P28221); details: human cloned receptor
5-HT1A receptor subtype = biological target: T1, 5-HT1A receptor subtype (Homo sapiens, UniProt P08908)
T1 sequence (P08908 1-422): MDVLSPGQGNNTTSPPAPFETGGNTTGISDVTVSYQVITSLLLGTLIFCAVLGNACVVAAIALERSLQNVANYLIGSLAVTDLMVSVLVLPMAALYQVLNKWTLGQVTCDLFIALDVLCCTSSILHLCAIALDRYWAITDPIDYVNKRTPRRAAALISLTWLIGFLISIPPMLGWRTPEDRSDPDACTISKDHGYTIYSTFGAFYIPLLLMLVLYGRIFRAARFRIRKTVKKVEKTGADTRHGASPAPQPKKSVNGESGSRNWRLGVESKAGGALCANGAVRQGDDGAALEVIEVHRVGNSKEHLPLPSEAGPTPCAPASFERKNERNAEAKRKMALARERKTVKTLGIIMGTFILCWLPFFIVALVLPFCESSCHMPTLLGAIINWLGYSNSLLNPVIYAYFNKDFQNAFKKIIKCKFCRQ

5-HTIE receptor subtype = 5-HTIE receptor subtype (Homo sapiens, UniProt P28566)
5-HTIF receptor subtype = biological target: T2, 5-HTIF receptor subtype (Homo sapiens, UniProt P30939)
T2 sequence (P30939 1-366): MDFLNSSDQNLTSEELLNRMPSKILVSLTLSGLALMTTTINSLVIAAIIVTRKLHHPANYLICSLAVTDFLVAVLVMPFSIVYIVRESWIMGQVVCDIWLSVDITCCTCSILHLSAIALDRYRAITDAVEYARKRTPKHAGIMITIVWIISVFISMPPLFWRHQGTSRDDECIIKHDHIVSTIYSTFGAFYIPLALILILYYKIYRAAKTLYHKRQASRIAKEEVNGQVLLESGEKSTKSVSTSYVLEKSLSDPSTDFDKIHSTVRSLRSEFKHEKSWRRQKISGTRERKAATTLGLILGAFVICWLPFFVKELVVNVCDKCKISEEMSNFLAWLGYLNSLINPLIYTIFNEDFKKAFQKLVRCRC

5-HT7 receptor = 5-HT7 receptor (Homo sapiens, UniProt P34969)
[3] = system: alpha-adrenergic receptors
[4] = system: beta-adrenergic receptors
[5] = in vivo

Sequence of 5-HTIE receptor subtype (P28566 whole entry): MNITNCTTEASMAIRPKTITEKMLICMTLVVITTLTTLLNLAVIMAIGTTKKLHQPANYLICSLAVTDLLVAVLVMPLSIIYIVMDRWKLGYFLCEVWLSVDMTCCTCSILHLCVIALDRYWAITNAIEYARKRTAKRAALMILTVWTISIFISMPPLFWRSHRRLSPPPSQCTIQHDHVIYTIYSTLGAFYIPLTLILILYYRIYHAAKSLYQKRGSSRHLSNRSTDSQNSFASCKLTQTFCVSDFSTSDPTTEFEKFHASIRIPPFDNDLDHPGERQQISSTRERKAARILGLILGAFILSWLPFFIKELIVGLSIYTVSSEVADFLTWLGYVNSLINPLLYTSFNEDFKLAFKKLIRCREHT
Sequence of 5-HT7 receptor (P34969 whole entry): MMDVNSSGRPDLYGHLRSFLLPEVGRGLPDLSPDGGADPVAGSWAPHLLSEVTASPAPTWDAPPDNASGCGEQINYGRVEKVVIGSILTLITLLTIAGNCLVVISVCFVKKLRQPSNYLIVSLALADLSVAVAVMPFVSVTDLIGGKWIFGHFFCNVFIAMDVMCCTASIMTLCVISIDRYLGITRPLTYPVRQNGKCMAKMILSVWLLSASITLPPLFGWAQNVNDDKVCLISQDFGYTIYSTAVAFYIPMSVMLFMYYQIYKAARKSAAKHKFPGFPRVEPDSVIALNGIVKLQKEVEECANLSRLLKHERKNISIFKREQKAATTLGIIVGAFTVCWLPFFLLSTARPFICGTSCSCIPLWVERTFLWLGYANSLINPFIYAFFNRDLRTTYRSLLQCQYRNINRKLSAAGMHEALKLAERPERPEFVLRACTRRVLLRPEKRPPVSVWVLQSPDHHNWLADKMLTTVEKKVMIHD
Sequence of human cloned 5-HT1B receptors (P28222 whole entry): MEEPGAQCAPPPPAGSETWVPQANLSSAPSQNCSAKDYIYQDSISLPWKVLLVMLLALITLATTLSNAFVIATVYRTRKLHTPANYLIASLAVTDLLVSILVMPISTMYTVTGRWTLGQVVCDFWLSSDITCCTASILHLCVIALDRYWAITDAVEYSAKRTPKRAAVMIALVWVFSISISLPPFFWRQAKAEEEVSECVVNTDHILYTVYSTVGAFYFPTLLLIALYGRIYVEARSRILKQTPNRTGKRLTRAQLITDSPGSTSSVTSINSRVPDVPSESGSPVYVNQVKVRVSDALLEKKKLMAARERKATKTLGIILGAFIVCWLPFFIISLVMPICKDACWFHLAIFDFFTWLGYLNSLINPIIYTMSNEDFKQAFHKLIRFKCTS
Sequence of human cloned 5-HT1D receptors (P28221 whole entry): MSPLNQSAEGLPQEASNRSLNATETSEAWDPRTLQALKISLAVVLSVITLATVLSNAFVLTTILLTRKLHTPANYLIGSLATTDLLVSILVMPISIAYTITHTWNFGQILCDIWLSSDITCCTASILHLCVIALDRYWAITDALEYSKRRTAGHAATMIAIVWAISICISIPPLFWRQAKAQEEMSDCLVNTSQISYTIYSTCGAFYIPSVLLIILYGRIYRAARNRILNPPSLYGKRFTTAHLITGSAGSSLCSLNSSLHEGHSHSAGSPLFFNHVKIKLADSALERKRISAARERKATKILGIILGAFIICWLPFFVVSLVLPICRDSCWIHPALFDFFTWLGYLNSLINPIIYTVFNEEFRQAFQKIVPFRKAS

Compound: CN(C)CCc1c[nH]c2ccc(Cn3cncn3)cc12 [Rizatriptan]
- affinity for 5-HT1B receptors [1]: high affinity
- affinity for 5-HT1D receptors [2]: high affinity
- affinity for 5-HT1A receptor subtype (5-HT1A receptor subtype): weak affinity
- affinity for 5-HTIE receptor subtype (5-HTIE receptor subtype): weak affinity
- affinity for 5-HTIF receptor subtype (5-HTIF receptor subtype): weak affinity
- affinity for 5-HT7 receptor (5-HT7 receptor): weak affinity
- activity at 5-HT2 receptors (5-HT2 receptors): no significant activity
- activity at 5-HT3 receptors (5-HT3 receptors): no significant activity
- activity at alpha-adrenergic receptors [3]: no significant activity
- activity at beta-adrenergic receptors [4]: no significant activity
- activity at dopaminergic receptors (dopaminergic receptors): no significant activity
- activity at histaminergic receptors (histaminergic receptors): no significant activity
- activity at muscarinic receptors (muscarinic receptors): no significant activity
- activity at benzodiazepine receptors (benzodiazepine receptors): no significant activity

Compound: CO/N=C(\C(=O)N[C@@H]1C(=O)N2C(C(=O)OC(C)OC(C)=O)=C(COC(N)=O)CS[C@H]12)c1ccco1 (stereo partly drawn) [cefuroxime axietil]
- bioavailability [5]: much higher bioavailability than the crystalline forms
